Several values for one entry are separate records, joined by “and”; a condition that tells them apart may be missing. Equal entries are not always repeated. Where two headings read alike, the source gives them in different places. No end group written: not given here. *: point of attachment. AMC = Cc1cc(=O)oc2cc(N*)ccc12
Key:
VsHdaH (1b) = type: biochemical, Vibrio sp.; conditions: VKDAC
KpHdaH (1b) = KpHdaH (1b) (Klebsiella pneumoniae, UniProt A0A377Z5F6); type: biochemical; conditions: KpHdaH (1b)
BsAcuC (2c) = target: T1, BsAcuC (2c) (Bacillus subtilis, UniProt P39067); assay: Substrate screening assay (acyl-peptide-AMC); type: biochemical; conditions: BsAcuC (2c); for [AMC]: Transform RFU in [AMC]
T1 construct: made in house; host or cells: E. coli BL21 (DE3)
T1 sequence (P39067 1-387): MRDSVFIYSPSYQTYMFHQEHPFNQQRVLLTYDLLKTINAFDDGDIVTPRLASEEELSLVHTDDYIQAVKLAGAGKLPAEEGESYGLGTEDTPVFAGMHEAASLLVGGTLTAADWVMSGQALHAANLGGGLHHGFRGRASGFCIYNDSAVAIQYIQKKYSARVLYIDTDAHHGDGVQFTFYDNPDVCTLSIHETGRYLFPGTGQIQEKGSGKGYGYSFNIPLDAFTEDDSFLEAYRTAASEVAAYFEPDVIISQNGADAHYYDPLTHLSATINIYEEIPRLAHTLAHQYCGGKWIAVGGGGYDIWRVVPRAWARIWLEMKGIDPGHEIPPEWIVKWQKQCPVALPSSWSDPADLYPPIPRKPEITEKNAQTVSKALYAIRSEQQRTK
Protocol: (§1) Experiments with SIRT2 and SIRT5 were supplemented with NAD^+ (500 µM). Thereafter, a solution of trypsin (25 µL, 5.0 mg/mL; final concentration of 2.5 mg/mL) was added, and the development of the assay was allowed to proceed for 90 min at room temperature before fluorescence analysis. […] To this end, a single category is given to all conversions >48% on the heatmap. […] For the H4-derived peptide LGKbio no positive control was available.

VcHdaH (5b) = type: biochemical, Vibrio cholerae; conditions: VcHdaH (5b); for [AMC]: Transform RFU in [AMC]
PsApaH (4) [1] = target: T2, PsApaH (4) (Pseudomonas sp. M30-35, UniProt A0A1Y0KY79); type: biochemical; conditions: PsApaH (4)
Protocol: as §1

Controls = assay: Substrate screening assay (acyl-peptide-AMC), control enzymes; type: biochemical
PsApaH (4) [2] = target: T2, PsApaH (4); assay: Acetyl-polyamine deacetylase assay; type: biochemical; conditions: for [acetate] (individual samples): acetate released from acetyl-polyamine substrate, Sample 1-3; for [acetate] mean: mean of samples
Target sequence in this assay (A0A1Y0KY79 1-342 limits assumed): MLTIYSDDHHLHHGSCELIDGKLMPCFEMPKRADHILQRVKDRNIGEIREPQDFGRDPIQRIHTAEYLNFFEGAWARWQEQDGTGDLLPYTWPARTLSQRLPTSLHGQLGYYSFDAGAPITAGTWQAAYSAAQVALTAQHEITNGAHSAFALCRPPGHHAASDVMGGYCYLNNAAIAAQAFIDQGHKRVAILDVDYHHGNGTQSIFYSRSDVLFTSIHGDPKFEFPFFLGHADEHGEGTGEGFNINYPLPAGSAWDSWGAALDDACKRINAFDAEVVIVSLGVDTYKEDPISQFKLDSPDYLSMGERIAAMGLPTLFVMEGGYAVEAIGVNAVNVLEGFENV

PA1409 = PA1409 (Pseudomonas aeruginosa, UniProt Q9I3T5); assay: Acetyl-polyamine deacetylase assay (positive control); type: biochemical; conditions: for [acetate] (individual samples): PA1409, acetate released from acetyl-polyamine substrate, Sample 1-2; for [acetate] mean: mean of samples
PA1409, sequence (Q9I3T5 whole entry): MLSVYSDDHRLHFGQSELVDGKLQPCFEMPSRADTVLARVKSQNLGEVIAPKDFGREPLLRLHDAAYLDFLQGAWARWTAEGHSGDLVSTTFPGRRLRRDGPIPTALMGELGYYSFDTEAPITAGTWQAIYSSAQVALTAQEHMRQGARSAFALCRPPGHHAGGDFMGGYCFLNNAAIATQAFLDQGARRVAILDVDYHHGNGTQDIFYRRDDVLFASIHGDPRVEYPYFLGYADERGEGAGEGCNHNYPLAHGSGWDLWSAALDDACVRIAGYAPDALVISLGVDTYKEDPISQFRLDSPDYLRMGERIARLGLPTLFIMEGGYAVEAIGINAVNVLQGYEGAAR

## QPKKhex (QPKK-{AMC}; not fully specified (residue 4); printed as QPKKhex; also: hexanoyl-lysine (which Lys not given here); UniProt P04637 317-320, looked up, fragment)
VsHdaH (1b); Transform RFU*2, Sample 1
  Relative Fluorescene Units (RFU): 72 RFU
VsHdaH (1b); Transform RFU*2, Sample 2
  Relative Fluorescene Units (RFU): 194 RFU
VsHdaH (1b); Sample 1
  Relative Fluorescene Units (RFU): 36 RFU
VsHdaH (1b); Sample 2
  Relative Fluorescene Units (RFU): 97 RFU
KpHdaH (1b); Sample 1
  Relative Fluorescene Units (RFU): 170 RFU
KpHdaH (1b); Sample 2
  Relative Fluorescene Units (RFU): 14 RFU
KpHdaH (1b); Transform RFU*2, Sample 1
  Relative Fluorescene Units (RFU): 340 RFU
KpHdaH (1b); Transform RFU*2, Sample 2
  Relative Fluorescene Units (RFU): 28 RFU
BsAcuC (2c); Sample 1
  Relative Fluorescene Units (RFU): 1720 RFU
  [AMC]: 1679.69 nM
BsAcuC (2c); Sample 2
  Relative Fluorescene Units (RFU): 1255 RFU
  [AMC]: 1225.59 nM
BsAcuC (2c); Transform RFU*2, Sample 1
  Relative Fluorescene Units (RFU): 3440 RFU
BsAcuC (2c); Transform RFU*2, Sample 2
  Relative Fluorescene Units (RFU): 2510 RFU
VcHdaH (5b); Sample 1
  [AMC]: -22.46 nM
  Relative Fluorescene Units (RFU): -23 RFU
VcHdaH (5b); Sample 2
  [AMC]: 121.09 nM
  Relative Fluorescene Units (RFU): 124 RFU
VcHdaH (5b); Transform RFU*2, Sample 1
  Relative Fluorescene Units (RFU): -46 RFU
VcHdaH (5b); Transform RFU*2, Sample 2
  Relative Fluorescene Units (RFU): 248 RFU
PsApaH (4) [1]; Sample 1
  Relative Fluorescene Units (RFU): 128 RFU
PsApaH (4) [1]; Sample 2
  Relative Fluorescene Units (RFU): 61 RFU
PsApaH (4) [1]; Transform RFU*2, Sample 1
  Relative Fluorescene Units (RFU): 256 RFU
PsApaH (4) [1]; Transform RFU*2, Sample 2
  Relative Fluorescene Units (RFU): 122 RFU
Controls
  [AMC]: 3.01563 µM and 4.0166 µM

## CC(=O)NCCCNCCCCNCCCN [N1-acetylspermine]
PsApaH (4) [2]; time 5 min
  [acetate] (individual samples): 3.446 mM and 3.815 mM and 3.598 mM
  [acetate] mean: 3.62 mM
PsApaH (4) [2]; time 10 min
  [acetate] (individual samples): 5.9022 mM and 5.728 mM and 6.011 mM
  [acetate] mean: 5.88 mM
PsApaH (4) [2]; time 20 min
  [acetate] (individual samples): 8.6196 mM and 9.685 mM and 8.576 mM
  [acetate] mean: 8.96 mM
PsApaH (4) [2]; time 45 min
  [acetate] (individual samples): 12.6414 mM and 13.25 mM and 13.0327 mM
  [acetate] mean: 12.9747 mM
PA1409; time 5 min
  [acetate] (individual samples): 4.758 mM and 5.242 mM
PA1409; time 10 min
  [acetate] (individual samples): 18.4144 mM and 18.3703 mM
PA1409; time 20 min
  [acetate] (individual samples): 24.4938 mM and 25.2427 mM
PA1409; time 45 min
  [acetate] (individual samples): 26.7845 mM and 27.0048 mM
PA1409; PA1409, time 5 min
  [acetate] mean: 5 mM
PA1409; PA1409, time 10 min
  [acetate] mean: 18.3923 mM
PA1409; PA1409, time 20 min
  [acetate] mean: 24.8682 mM
PA1409; PA1409, time 45 min
  [acetate] mean: 26.8947 mM

## CC(=O)NCCCNCCCCN [N1-acetylspermidine]
PsApaH (4) [2]; time 5 min
  [acetate] (individual samples): 0.06608 mM and 0.08811 mM
  [acetate] mean: 0.07709 mM
PsApaH (4) [2]; time 10 min
  [acetate] (individual samples): 0.06608 mM and 0.1322 mM
  [acetate] mean: 0.09912 mM
PsApaH (4) [2]; time 20 min
  [acetate] (individual samples): 0.3304 mM and 0.3084 mM
  [acetate] mean: 0.3194 mM
PsApaH (4) [2]; time 45 min
  [acetate] (individual samples): 0.2643 mM and 0.3965 mM
  [acetate] mean: 0.3304 mM
PA1409; time 5 min
  [acetate] (individual samples): 1.542 mM and 1.762 mM
PA1409; time 10 min
  [acetate] (individual samples): 8.1499 mM and 9.163 mM
PA1409; time 20 min
  [acetate] (individual samples): 14.4496 mM and 14.5817 mM
PA1409; time 45 min
  [acetate] (individual samples): 15.6831 mM and 14.9782 mM
PA1409; PA1409, time 5 min
  [acetate] mean: 1.652 mM
PA1409; PA1409, time 10 min
  [acetate] mean: 8.657 mM
PA1409; PA1409, time 20 min
  [acetate] mean: 14.5156 mM
PA1409; PA1409, time 45 min
  [acetate] mean: 15.3306 mM

## CC(=O)NCCCCN [N1-acetylputrescine]
PsApaH (4) [2]; time 5 min
  [acetate] (individual samples): 1.6 mM (2×) and 2.1 mM
  [acetate] mean: 1.767 mM
PsApaH (4) [2]; time 10 min
  [acetate] (individual samples): 8.8 mM and 8.3 mM and 8 mM
  [acetate] mean: 8.367 mM
PsApaH (4) [2]; time 20 min
  [acetate] (individual samples): 12 mM and 13 mM and 12.2 mM
  [acetate] mean: 12.4 mM
PsApaH (4) [2]; time 45 min
  [acetate] (individual samples): 18 mM and 16.6 mM and 17.6 mM
  [acetate] mean: 17.4 mM
PA1409; time 5 min
  [acetate] (individual samples): 2.66 mM and 2.46 mM
PA1409; time 20 min
  [acetate] (individual samples): 10.76 mM and 10.61 mM
PA1409; time 45 min
  [acetate] (individual samples): 15.78 mM and 16.29 mM
PA1409; PA1409, time 5 min
  [acetate] mean: 2.56 mM
PA1409; PA1409, time 20 min
  [acetate] mean: 10.685 mM
PA1409; PA1409, time 45 min
  [acetate] mean: 16.035 mM

From paper PMC11532494 (Nature Communications, 2024)
